According to patent US20110230450A1, “PLATELET-ACTIVATING FACTOR (PAF) ANALOGS AND USES THEREOF” (Vascular Biogenics Lts, priority 2007, published 2011):

Assays:
[1] = system: IL-12/23 p40; assay: IL-12/23 p40 production by peptidoglycan-activated BMDCs (ELISA); assay type: cell-based, mouse; conditions: BMDCs activated with 10 μg/ml peptidoglycan
Protocol: (§1) Generation of bone-marrow derived dendritic cells (BMDC's): Bone-marrow was flushed out with cold RPMI-1640 medium from mice femur and tibia. A cell suspension was prepared and erythrocytes were removed using red blood cell (RBC) lysis buffer (Beit Haemek, Israel). Cells were washed in phosphate buffer saline (PBS) (Beit Haemek, Israel), and incubated at 4° C. for 15 minutes in buffer containing PBS and 0.5% bovine serum albumin (BSA) with mouse B220 and CD90 microbeads (Miltenyi biotech, Bergisch Gladbach, Germany). Cells were then washed, resuspended in the same buffer, and depleted from B and T cells on a Midi-Macs separation unit through a LD or LS column (Miltenyi Biotech). The depleted cells were then counted, washed and seeded (10^6/ml) in medium containing RPMI-1640 medium, L-glutamine, β-mercaptoethanol, 10% fetal calf serum (FCS), antibiotics (penicillin, streptomycin) and 20 ng/ml of mouse granulocyte-macrophage colony-stimulating factor (GM-CSF) (Peprotech, Rehovot, Israel). Medium was replaced every other day and cells were used for subsequent experiments on days 5-6 post culturing.
Cytokine analysis: For the detection of cytokine production, supernatants from 24-hour post-treatment BMDCs were tested with Duoset ELISA kits for mouse IL12/23 p40 (R&D systems, Minneapolis, Minn.). […]

[2] = system: human platelets; assay: Platelet aggregation assay; assay type: cell-based; conditions: human platelet-rich plasma, 5 minutes; CI-302 in escalating concentrations of up to 1 mM; PAF 0.125-0.25 μM (FIGS. 2-4)
Protocol: Platelet aggregation assay: Platelet-rich plasma was prepared from citrated whole human blood by centrifugation (200 g for 20 minutes). The final platelet concentration was adjusted to 2×10^8 platelets/ml with autologous plasma. CI-302 and PAF dissolved in PBS were added to induce platelet activation while the platelet sample was stirred at 1,000 rpm at 37° C. Aggregation was recorded for 5 minutes using an AggRAM 4-channel aggregometer (AggRAM aggregation Remote Analyzer Module; Helena Laboratories).

[3] = system: IL-12/23 p40; assay: q-PCR for p40 mRNA in peptidoglycan-activated CD11c+ BMDCs; assay type: cell-based, mouse; conditions: 20 μg/ml for 1 hour, then 10 μg/ml peptidoglycan for 2, 3 and 4 hours, normalized to GAPDH (FIG. 6)
Protocol: as §1, with “Medium was replaced every other day and cells were used for subsequent experiments on days 5-6 post culturing.” left out
Preparation of RNA, cDNA and Quantitative Real Time PCR (Q-PCR): RNA was prepared from cells using an RNeasy mini kit (Qiagen, Valencia, Calif.). […] All real time quantitative PCR (q-PCR) reactions were performed using LightCycler Taqman master (Roche Diagnostics, Mannheim, Germany) and the LightCycler (Roche). […]

[4] = system: pro-inflammatory chemokines and cytokines in spinal cords; assay: q-PCR for pro-inflammatory chemokines and cytokines in spinal cords of EAE mice; assay type: in vivo; conditions: 0.4 mg/kg oral, 28 days after immunization
Protocol: Preparation of RNA, cDNA and Quantitative Real Time PCR (Q-PCR): RNA was prepared from cells using an RNeasy mini kit (Qiagen, Valencia, Calif.). For cDNA preparation, 1 μg of RNA was combined with oligo-dT for 10 minutes at 70° C., and 1^St strand buffer, dithiothreitol (DTT), deoxynucleotides (dNTP) and super-script reverse transcriptase (SS-II) (Invitrogen, Carlsbad, Calif.) were then added for 50 minutes at 42° C. The reaction was ended by incubation for an additional 15 minutes at 70° C. All real time quantitative PCR (q-PCR) reactions were performed using LightCycler Taqman master (Roche Diagnostics, Mannheim, Germany) and the LightCycler (Roche). For tissue mRNA expression, total RNA was extracted from spinal cord using the RNeasy lipid tissue mini kit RNA. Ready sets of probe with primers for q-PCR were purchased from Applied Biosystems (Foster City, Calif.).
(§2) EAE (experimental autoimmune encephalomyelitis) induction: Mice were immunized subcutaneously with an emulsion containing 1.5 mg/ml MOG peptide 35-55 ([…]) (Sigma-Aldrich, Rehovot, Israel) and 2.5 mg/ml complete Freund's adjuvant (CFA), 100 μl in each flank. Pertussis toxin (500 ng in 500 μl PBS) was administered intra-peritoneally immediately and 48 hours after immunization. For prevention of EAE, CI-302 or PBS was given orally once a day for 10 consecutive days beginning 5 days before immunization.

[5] = system: MOG induced EAE; assay: MOG peptide-induced experimental autoimmune encephalomyelitis (EAE), clinical score; assay type: in vivo, mice; conditions: from 5 days before to 5 days after MOG 35-55 immunization (FIG. 7)
Protocol: as §2, with “Mice: Female 8-10 week old […] mice were purchased from Harlan Laboratories (Israel). EAE (experimental” for “EAE (experimental”, “before immunization. The severity of EAE was assessed utilizing clinical scores determined as follows: 0=normal, 1=limp tail, 2=weakness of hind limbs, 3=hind leg paralysis, 4=hind and fore leg paralysis, 5=moribund or death” for “before immunization.”

[6] = system: tyrosine phosphorylation in peritoneal macrophages; assay: Western blot of phosphotyrosine in peritoneal macrophages; assay type: cell-based; conditions: thioglycolate-stimulated peritoneal macrophages, 20 μg/ml, 10 minutes (FIG. 10)
Protocol: Western blot: Thioglycolate-stimulated peritoneal macrophages were treated for 10 minutes with 20 μg/ml of CI-302. 20 μg/ml of phosphatidylcholine or solvent served as negative controls, whereas CI-201 served as a positive control. Whole cell lysates were resolved by SDS-PAGE on 10% Tris/HCl denaturing gel, transferred to nitrocellulose membranes and blotted with anti-phosphotyrosine antibody. Blotting with anti-ERK1/2 antibody served as a loading control.

[7] = system: collagen-induced arthritis; assay: Collagen-induced arthritis (CIA), arthritis score; assay type: in vivo, DBA/1 male mice; conditions: 0.4 mg/kg by gavage daily from day 22 to day 39, CIA mouse model (FIG. 9)
Protocol: Collagen-induced arthritis (CIA) induction: DBA/1 male mice were immunized to induce arthritis by a collagen injection containing complete Freund's adjuvant (CFA) in the base of the tail (day 0) and a booster shot in the flank (day 21). Mice were followed for arthritis development until day 39. Administration by gavage of the tested compounds and control substances began on day 22 and was carried out on a daily basis (6 times per week).
The severity of arthritis was assessed as follows:
Each paw is scored on a scale of 0-4 for the degree of swelling, erythema, and deformity of the joints (maximum score 16 per animal) as follows [Brackertz et al., 1977]:
0=normal 1=slight erythema and/or swelling of the ankle or wrist or toes 2=moderate erythema and/or swelling of the ankle or wrist 3=severe erythema and/or swelling of the ankle or wrist (or moderate in combination of all toes) 4=complete erythema and swelling of toes or fingers and ankle or wrist, and inability to bend the ankle or wrist

Compound | maximal reduction of p40 production ([1]; 1 hour pre-incubation, supernatants 24 hours, highest CI-302 concentration tested (FIG. 5A)) [%] | production of p40 by activated BMDCs ([1]; escalating CI-302 concentrations, ELISA at 24 hours (FIG. 5A)) | platelet aggregation [2] | p40 mRNA expression [3] | p40 gene transcription in spinal cord ([4]; relative to PBS-treated group (FIG. 8A)) | p35 gene transcription in spinal cord ([4]; relative to PBS-treated group (FIG. 8B)) | CCL2 (MCP-1) transcription in spinal cord ([4]; relative to PBS-treated group (FIG. 8C)) | IFN-γ transcription in spinal cord ([4]; relative to PBS-treated group (FIG. 8D)) | TNF-α transcription in spinal cord ([4]; relative to PBS-treated group (FIG. 8E)) | CD4 mRNA levels in spinal cord ([4]; relative to control mice (FIG. 8F)) | protection against EAE development (mean clinical score) ([5]; 0.04 mg/kg orally once a day) | protection against EAE development (mean clinical score) ([5]; 0.4 mg/kg orally once a day) | level of phosphotyrosine [6] | arthritis severity (mean score) [7]
CCCCCCCCCCCCCCCCOC[C@H](COP(=O)([O-])OCC[N+](C)(C)C)OC(=O)CCC [CI-302, 1-hexadecyl-2-butyroyl-sn-glycero-3-phosphocholine] | 45 | significantly inhibited production of p40 by activated BMDCs in a dose-dependent manner | no platelet aggregation was observed | inhibited p40 mRNA expression considerably | reduced | reduced | reduced | reduced | reduced | considerably lower | noticeable though milder protection | close to complete protection | strongly reduced the level of phosphotyrosine | decreased arthritis severity throughout the study period
CCCCCCCCCCCCCCCCOC[C@H](COP(=O)([O-])OCC[N+](C)(C)C)OC(C)=O [PAF, 1-hexadecyl-2-acetoyl-sn-glycero-3-phosphocholine, reference compound] | – | – | substantial platelet aggregation | – | – | – | – | – | – | – | – | – | – | –
L-a-phosphatidylcholine [PC, reference compound] | – | – | – | little or no effect | – | – | – | – | – | – | – | – | – | –
